In patent US20120024744A1, “Soil-related and/or Crop-related Applications for Chlorine Dioxide” (DHARMA IP, LLC, priority 2010, published 2012):

Assay: Enhanced solubility of beta-cyclodextrin in water containing ClO2
Assay type: physicochemical
Conditions: 100 g slurries, 5% (w/w) in 8000 ppm ClO2 vs ultrapure water, 200 rpm, 3 days

weight of dried undissolved beta-cyclodextrin, ClO2 containing slurry less than control slurry: 0.32 g
Structure (SMILES): OC[C@H]1O[C@@H]2O[C@H]3[C@H](O)[C@@H](O)[C@@H](O[C@H]4[C@H](O)[C@@H](O)[C@@H](O[C@H]5[C@H](O)[C@@H](O)[C@@H](O[C@H]6[C@H](O)[C@@H](O)[C@@H](O[C@H]7[C@H](O)[C@@H](O)[C@@H](O[C@H]8[C@H](O)[C@@H](O)[C@@H](O[C@H]1[C@H](O)[C@H]2O)O[C@@H]8CO)O[C@@H]7CO)O[C@@H]6CO)O[C@@H]5CO)O[C@@H]4CO)O[C@@H]3CO [beta-cyclodextrin]
